Results taken from patent US6525001B1, “Substituted pyrimidine and pyridine herbicides” (Mid-American Commercialization Corporation, priority 1997, dated 2003).

Key:
Assay type in all cases: in vivo
[1] = system: fall panicum (Panicum dichotomiflorum); assay: Test C; set-up: key: 0 was no effect; 100 was complete control; conditions: PREEMERGENCE
[2] = system: common ragweed (Ambrosia elatior); assay: Test C; set-up: key: 0 was no effect; 100 was complete control; conditions: PREEMERGENCE
[3] = system: johnsongrass (Sorghum halepense); assay: Test C; set-up: key: 0 was no effect; 100 was complete control; conditions: PREEMERGENCE
[4] = system: surinam grass (Brachiaria decumbens); assay: Test C; set-up: key: 0 was no effect; 100 was complete control; conditions: PREEMERGENCE
[5] = system: duck salad (Heteranthera limosa); assay: Test B flood test
In short: (§1)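 Each value is a visual injury score relative to controls, with 10 meaning complete control and 0 no effect. Evaluation took place twelve to sixteen days after the 2-leaf-stage plants were treated and kept in the greenhouse.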

[6] = system: smallflower flatsedge (Cyperus difformis); assay: Test B flood test
In short: as §1

[7] = system: bamyardgrass (Echinochloa crus-galli); assay: Test B flood test
In short: as §1

rice (Oryza sativa) = assay: Test B flood test
In short: as §1

[8] = system: purple nutsedge (Cyperus rotundus); assay: Test C; set-up: key: 0 was no effect; 100 was complete control; conditions: PREEMERGENCE
[9] = system: blackgrass (Alopecurus myosuroides); assay: Test B pre-/postemergence
In short: (§2)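 Response scores run from 0, meaning no effect, to 10, meaning complete control, assigned by eye relative to controls twelve to sixteen days after spraying. Treatment was both preemergence on planted seed and postemergence on plants at the 1- to 4-leaf stage.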

wild oat (Avena fatua) = assay: Test B pre-/postemergence
In short: as §2

[10] = Rate 62 g/ha, Postemergence (flood test)
[11] = Rate 125 g/ha, Postemergence, flood test
[12] = Rate 250 g/ha, Postemergence (flood test species)
[13] = Rate 125 g/ha, Postemergence section (flood test species)
[14] = Rate 250 g/ha, Postemergence (so in the source)

In the case of Cc1cnc(-c2ccc(C(F)(F)F)cc2)nc1C(Cl)c1cccc(C(F)(F)F)c1 (racemic) [Compound 21], the “Plant response rating, Fall panicum” value ([1]; Rate 35 g/ha) is reported as 10, the “Plant response rating, Fall panicum” value ([1]; Rate 70 g/ha) is reported as 0 and the “Plant response rating, Fall panicum” value ([1]; Rate 140 g/ha) is reported as 90. The “Plant response rating, Common ragweed” value ([2]; Rate 35 g/ha) was 0, the “Plant response rating, Common ragweed” value ([2]; Rate 70 g/ha) was 0 and the “Plant response rating, Common ragweed” value ([2]; Rate 140 g/ha) was 20. The “Plant response rating, Johnsongrass” value ([3]; Rate 35 g/ha) was 0, the “Plant response rating, Johnsongrass” value ([3]; Rate 70 g/ha) was 0 and the “Plant response rating, Johnsongrass” value ([3]; Rate 140 g/ha) was 5. For the same compound, the “Plant response rating, Surinam grass” value ([4]; Rate 35 g/ha) was 0, the “Plant response rating, Surinam grass” value ([4]; Rate 70 g/ha) was 5 and the “Plant response rating, Surinam grass” value ([4]; Rate 140 g/ha) was 10. For the same compound, the “Plant response rating, Ducksalad” value [5, 10] was 3, the “Plant response rating, Ducksalad” value [5, 11] was 4 and the “Plant response rating, Ducksalad” value [5, 12] was 5. The “Plant response rating, S. Flatsedge” value [6, 10] was 6, the “Plant response rating, S. Flatsedge” value [6, 11] was 8 and the “Plant response rating, S. Flatsedge” value [6, 12] was 9. The “Plant response rating, Barnyardgrass” value [7, 10] was 3, the “Plant response rating, Barnyardgrass” value [7, 11] was 4 and the “Plant response rating, Barnyardgrass” value [7, 12] was 4. The “Plant response rating, Rice” value (rice (Oryza sativa); [10]) was 3, the “Plant response rating, Rice” value (rice (Oryza sativa); [11]) was 4 and the “Plant response rating, Rice” value (rice (Oryza sativa); [12]) was 5. For the same compound, the “Plant response rating, Purple nutsedge” value ([8]; Rate 35 g/ha) was 0, the “Plant response rating, Purple nutsedge” value ([8]; Rate 70 g/ha) was 0 and the “Plant response rating, Purple nutsedge” value ([8]; Rate 140 g/ha) was 0. The “Plant response rating, Blackgrass” value ([9]; Rate 62 g/ha, Postemergence) was 3, the “Blackgrass plant response rating” value ([9]; Rate 62 g/ha, Preemergence) was 1 and the “Plant response rating, Blackgrass” value ([9]; Rate 125 g/ha, Postemergence) was 4. The “Blackgrass plant response rating” value ([9]; Rate 125 g/ha, Preemergence) was 3, the “Plant response rating, Blackgrass” value ([9]; Rate 250 g/ha, Postemergence) was 6 and the “Plant response rating, Blackgrass” value ([9]; Rate 250 g/ha, Preemergence) was 5. The “Plant response rating, Wild oats” value (wild oat (Avena fatua); Rate 62 g/ha, Postemergence) was 4, the “Wild oats plant response rating” value (wild oat (Avena fatua); Rate 62 g/ha, Preemergence) was 4 and the “Plant response rating, Wild oats” value (wild oat (Avena fatua); Rate 125 g/ha, Postemergence) was 5. For the same compound, the “Wild oats plant response rating” value (wild oat (Avena fatua); Rate 125 g/ha, Preemergence) was 5, the “Plant response rating, Wild oats” value (wild oat (Avena fatua); Rate 250 g/ha, Postemergence) was 6 and the “Plant response rating, Wild oats” value (wild oat (Avena fatua); Rate 250 g/ha, Preemergence) was 8.

In the case of Cc1cnc(-n2cnc(C(F)(F)F)n2)nc1Cc1cccc(C(F)(F)F)c1 [Compound 43], the “Plant response rating, Fall panicum” value ([1]; Rate 35 g/ha) is reported as 100, the “Plant response rating, Fall panicum” value ([1]; Rate 70 g/ha) is reported as 100 and the “Plant response rating, Fall panicum” value ([1]; Rate 140 g/ha) is reported as 100. The “Plant response rating, Common ragweed” value ([2]; Rate 35 g/ha) was 0, the “Plant response rating, Common ragweed” value ([2]; Rate 70 g/ha) was 40 and the “Plant response rating, Common ragweed” value ([2]; Rate 140 g/ha) was 50. For the same compound, the “Plant response rating, Johnsongrass” value ([3]; Rate 35 g/ha) was 10, the “Plant response rating, Johnsongrass” value ([3]; Rate 70 g/ha) was 30 and the “Plant response rating, Johnsongrass” value ([3]; Rate 140 g/ha) was 30. The “Plant response rating, Surinam grass” value ([4]; Rate 35 g/ha) was 0, the “Plant response rating, Surinam grass” value ([4]; Rate 70 g/ha) was 5 and the “Plant response rating, Surinam grass” value ([4]; Rate 140 g/ha) was 10. The “Plant response rating, Ducksalad” value [5, 10] was 8, the “Plant response rating, Ducksalad” value [5, 11] was 9 and the “Plant response rating, Ducksalad” value [5, 12] was 9. The “Plant response rating, S. Flatsedge” value [6, 10] was 9, the “S. Flatsedge plant response rating” value [6, 13] was 9 and the “Plant response rating, S. Flatsedge” value [6, 12] was 9. For the same compound, the “Plant response rating, Barnyardgrass” value [7, 10] was 4, the “Plant response rating, Barnyardgrass” value [7, 11] was 4 and the “Plant response rating, Barnyardgrass” value [7, 12] was 5. The “Plant response rating, Rice” value (rice (Oryza sativa); [10]) was 4, the “Rice plant response rating” value (rice (Oryza sativa); [13]) was 6 and the “Plant response rating, Rice” value (rice (Oryza sativa); [12]) was 7. For the same compound, the “Plant response rating, Purple nutsedge” value ([8]; Rate 35 g/ha) was 0, the “Plant response rating, Purple nutsedge” value ([8]; Rate 70 g/ha) was 0 and the “Plant response rating, Purple nutsedge” value ([8]; Rate 140 g/ha) was 0. For the same compound, the “Plant response rating, Blackgrass” value ([9]; Rate 62 g/ha, Postemergence) was 5, the “Blackgrass plant response rating” value ([9]; Rate 62 g/ha, Preemergence) was 2 and the “Plant response rating, Blackgrass” value ([9]; Rate 125 g/ha, Postemergence) was 6. For the same compound, the “Blackgrass plant response rating” value ([9]; Rate 125 g/ha, Preemergence) was 5, the “Plant response rating, Blackgrass” value ([9]; Rate 250 g/ha, Postemergence) was 8 and the “Plant response rating, Blackgrass” value [9, 14] was 8. For the same compound, the “Wild oats plant response rating” value (wild oat (Avena fatua); Rate 62 g/ha, Postemergence) was 4, the “Wild oats plant response rating” value (wild oat (Avena fatua); Rate 62 g/ha, Preemergence) was 6 and the “Wild oats plant response rating” value (wild oat (Avena fatua); Rate 125 g/ha, Postemergence) was 5. The “Plant response rating, Wild oats” value (wild oat (Avena fatua); Rate 125 g/ha, Preemergence) was 9, the “Plant response rating, Wild oats” value (wild oat (Avena fatua); Rate 250 g/ha, Postemergence) was 6 and the “Plant response rating, Wild oats” value (wild oat (Avena fatua); [14]) was 9.
